Source: patent US7473790B2 (Pfizer Inc., priority 2003, dated 2009)

Target: T1, HCV polymerase (Hepatitis C virus genotype 1b, UniProt P26663)
T1 construct: 2.5 pmoles (0.15 μg) HCV polymerase protein in a final volume of 75 μL
Experiment: HCV polymerase primer/template-directed transcription assay (32P-GTP incorporation, filter binding)
Assay type: biochemical
Settings: recombinant HCV polymerase; 30 minutes at 30° C.; concentration giving 50% inhibition of polymerase-directed transcription; read-out: IC50
Summary of the method: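 IC50s come from triplicate cpm, refit with an enzyme-concentration (30 nM) correction when under 200 nM. Reactions ran 30 min at 30° C in Tris pH 7.2 with MgCl2, 1 μM GTP spiked with α-32P-GTP, biotin-dG12 primer and poly(rC)300 template, with 1% DMSO. Incorporated label was collected on DE filtermats and counted.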

T1 sequence (P26663 2420-3010): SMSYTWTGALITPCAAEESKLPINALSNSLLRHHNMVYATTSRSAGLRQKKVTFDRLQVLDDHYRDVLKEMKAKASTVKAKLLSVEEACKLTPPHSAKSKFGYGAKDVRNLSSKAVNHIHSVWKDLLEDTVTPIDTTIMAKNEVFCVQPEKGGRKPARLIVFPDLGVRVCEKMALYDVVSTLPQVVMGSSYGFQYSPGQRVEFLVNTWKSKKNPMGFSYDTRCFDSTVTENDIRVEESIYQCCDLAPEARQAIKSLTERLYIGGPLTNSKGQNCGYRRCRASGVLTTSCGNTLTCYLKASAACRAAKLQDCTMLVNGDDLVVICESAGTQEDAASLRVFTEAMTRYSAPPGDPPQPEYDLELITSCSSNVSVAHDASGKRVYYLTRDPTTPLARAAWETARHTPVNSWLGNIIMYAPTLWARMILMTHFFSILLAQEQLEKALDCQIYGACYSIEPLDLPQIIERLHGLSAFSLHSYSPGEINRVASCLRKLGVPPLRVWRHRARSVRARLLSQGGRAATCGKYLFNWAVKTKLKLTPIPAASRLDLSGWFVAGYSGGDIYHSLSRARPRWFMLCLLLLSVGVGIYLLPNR

Row | SMILES | IC50 [nM]
1 | COc1cc(OC)c(CCC2(C3CCCC3)CC(O)=C(Sc3nnc(CN(C)C)n3C)C(=O)O2)cc1Cl (stereo not shown) [C(83)] | 40
2 | COc1cc(OC)c(CCC2(C3CCCC3)CC(O)=C(Sc3nc4ncccn4n3)C(=O)O2)cc1Cl (stereo not shown) [C(84)] | 33
3 | COc1cc(OC)c(CCC2(C3CCCC3)CC(O)=C(Sc3nnc(-c4cccnc4)n3C)C(=O)O2)cc1Cl (stereo not shown) [C(85), 6-[-(5-chloro-2,4-dimethoxyphenyl)ethyl]-6-cyclopentyl-4-hydroxy-3-[(4-methyl-5-pyridin-3-yl-4H-1,2,4-triazol-3-yl)thio]-5,6-dihydro-2H-pyran-2-one] | 35
4 | COc1cc(OC)c(CCC2(C3CCCC3)CC(O)=C(Sc3nnc(C)n3CCN3CCOCC3)C(=O)O2)cc1Cl (stereo not shown) [C(86), 6-[2-(5-chloro-2,4-dimethoxyphenyl)ethyl]-6-cyclopentyl-4-hydroxy-3-{[5-methyl-4-(2-morpholin-4-ylethyl)-4H-1,2,4-triazol-3-yl]thio}-5,6-dihydro-2H-pyran-2-one] | 48
5 | COc1cc(OC)c(CCC2(C3CCCC3)CC(O)=C(Sc3nc4ncc(C)cn4n3)C(=O)O2)cc1Cl (stereo not shown) [C(87), 6-[2-(5-chloro-2,4-dimethoxyphenyl)ethyl]-6-cyclopentyl-4-hydroxy-3-[(6-methyl[1,2,4]triazolo[1,5-a]pyrimidin-2-yl)thio]-5,6-dihydro-2H-pyran-2-one] | 28
6 | COc1cc(OC)c(CCC2(C3CCCC3)CC(O)=C(Sc3nnc(C)n3C)C(=O)O2)cc1Cl (stereo not shown) [C(88), 6-[2-(5-chloro-2,4-dimethoxyphenyl)ethyl]-6-cyclopentyl-3-[(4,5-dimethyl-4H-1,2,4-triazol-3-yl)thio]-4-hydroxy-5,6-dihydro-2H-pyran-2-one] | 22
7 | COC(=O)c1nnc(SC2=C(O)CC(CCc3cc(Cl)c(OC)cc3OC)(C3CCCC3)OC2=O)n1C (stereo not shown) [C(89), methyl 5-({6-[2-(5-chloro-2,4-dimethoxyphenyl)ethyl]-6-cyclopentyl-4-hydroxy-2-oxo-5,6-dihydro-2H-pyran-3-yl}thio)-4-methyl-4H-1,2,4-triazole-3-carboxylate] | 20
8 | COc1cc(OC)c(CCC2(C3CCCC3)CC(O)=C(Sc3nnc(CCN4CCOCC4)n3C)C(=O)O2)cc1Cl (stereo not shown) [C(90), 6-[2-(5-chloro-2,4-dimethoxyphenyl)ethyl]-6-cyclopentyl-4-hydroxy-3-{[4-methyl-5-(2-morpholin-4-ylethyl)-4H-1,2,4-triazol-3-yl]thio}-5,6-dihydro-2H-pyran-2-one] | 40
9 | COc1ccc(CCC2(C3CCCC3)CC(O)=C(Sc3nc4ncnc(O)c4[nH]3)C(=O)O2)cc1Cl (stereo not shown) [C(91), 3 6-[2-(3-chlor-4-methoxyphenyl)ethyl]-6-cyclopentyl-4-hydroxy-3-[(6-hydroxy-7H-purin-8-yl)thio]-5,6-dihydro-2H-pyran-2-one] | 40
10 | COc1ccc(CCC2(C3CCCC3)CC(O)=C(Sc3nnc(-c4cccnc4)[nH]3)C(=O)O2)cc1Cl (stereo not shown) [C(92), 6-[2-(3-chloro-4-methoxyphenyl)ethyl]-6-cyclopentyl-4-hydroxy-3-[(5-pyridin-3-yl-4H-1,2,4-triazol-3-yl)thio]-5,6-dihydro-2H-pyran-2-one] | 82
11 | CCOC(=O)c1cnc2nc(SC3=C(O)CC(CCc4cc(Cl)c(OC)cc4OC)(C4CCCC4)OC3=O)nn2c1 (stereo not shown) [C(93), ethyl 2-({6-[2-(5-chloro-2,4-dimethoxyphenyl)ethyl]-6-cyclopentyl-4-hydroxy-2-oxo-5,6-dihydro-2H-pyran-3-yl}thio)[1,2,4]triazolo[1,5-a]pyrimidine-6-carboxylate] | 14
12 | CCOC(=O)c1cnc2nc(SC3=C(O)CC(CCc4ccc(OC)c(Cl)c4)(C4CCCC4)OC3=O)nn2c1 (stereo not shown) [C(94), ethyl 2-({6-[2-(3-chloro-4-methoxyphenyl)ethyl]-6-cyclopentyl-4-hydroxy-2-oxo-5,6-dihydro-2H-pyran-3-yl}thio)[1,2,4]triazolo[1,5-a]pyrimidine-6-carboxylate] | 87
13 | COc1ccc(CCC2(C3CCCC3)CC(O)=C(Sc3nc4nccc(C)n4n3)C(=O)O2)cc1Cl (stereo not shown) [C(95), 6-[2-(3-chloro-4-methoxyphenyl)ethyl]-6-cyclopentyl-4-hydroxy-3-[(7-methyl[1,2,4]triazolo[1,5-a]pyrimidin-2-yl)thio]-5,6-dihydro-2H-pyran-2-one] | 74
14 | COc1ccc(CCC2(C3CCCC3)CC(O)=C(Sc3nnc(-c4cccnc4)n3C)C(=O)O2)cc1Cl (stereo not shown) [C(96)] | 75
15 | COc1ccc(CCC2(C3CCCC3)CC(O)=C(Sc3nnc(CN(C)C)n3C)C(=O)O2)cc1Cl (stereo not shown) [C(97), 6-[2-(3-chloro-4-methoxyphenyl)ethyl]-6-cyclopentyl-3-({5-[(dimethylamino)methyl]-4-methyl-4H-1,2,4-triazol-3-yl}thio)-4-hydroxy-5,6-dihydro-2H-pyran-2-one] | 120
16 | COc1ccc(CCC2(C3CCCC3)CC(O)=C(Sc3nc4ncc(C)cn4n3)C(=O)O2)cc1Cl (stereo not shown) [C(98), 6-[2-(3-chloro-4-methoxyphenyl)ethyl]-6-cyclopentyl-4-hydroxy-3-[(6-methyl[1,2,4]triazolo[1,5-a]pyrimidin-2-yl)thio]-5,6-dihydro-2H-pyran-2-one] | 68

Row | SMILES | IC50 [nM]
17 | COc1ccc(CCC2(C3CCCC3)CC(O)=C(Sc3nnc(C)n3C)C(=O)O2)cc1Cl (stereo not shown) [C(99), 6-[2-(3-chloro-4-methoxyphenyl)ethyl]-6-cyclopentyl-3-[(4,5-dimethyl-4H-1,2,4-triazol-3-yl)thio]-4-hydroxy-5,6-dihydro-2H-pyran-2-one] | 79
18 | COC(=O)c1nnc(SC2=C(O)CC(CCc3ccc(OC)c(Cl)c3)(C3CCCC3)OC2=O)n1C (stereo not shown) [C(100), methyl 5-({6-[2-(3-chloro-4-methoxyphenyl)ethyl]-6-cyclopentyl-4-hydroxy-2-oxo-5,6-dihydro-2H-pyran-3-yl}thio)-4-methyl-4H-1,2,4-triazole-3-carboxylate] | 32
19 | COc1ccc(CCC2(C3CCCC3)CC(O)=C(Sc3nccn3C)C(=O)O2)cc1Cl (stereo not shown) [C(101), 6-[2-(3-chloro-4-methoxyphenyl)ethyl]-6-cyclopentyl-4-hydroxy-3-[(1-methyl-1H-imidazol-2-yl)thio]-5,6-dihydro-2H-pyran-2-one] | 140
20 | COc1ccc(CCC2(C3CCCC3)CC(O)=C(Sc3nncn3C)C(=O)O2)cc1Cl (stereo not shown) [C(102), 6-[2-(3-chloro-4-methoxyphenyl)ethyl]-6-cyclopentyl-4-hydroxy-3-[(4-methyl-4H-1,2,4-triazol-3-yl)thio]-5,6-dihydro-2H-pyran-2-one] | 38
21 | COc1ccc(CCC2(C3CCCC3)CC(O)=C(Sc3ncc[nH]3)C(=O)O2)cc1Cl (stereo not shown) [C(103), 6-[2-(3-chloro-4-methoxyphenyl)ethyl]-6-cyclopentyl-4-hydroxy-3-(1H-imidazol-2-ylthio)-5,6-dihydro-2H-pyran-2-one] | 240
22 | COc1ccc(CCC2(C3CCCC3)CC(O)=C(Sc3nnc(-c4ccncc4)o3)C(=O)O2)cc1Cl (stereo not shown) [C(104), 6-[2-(3-chloro-4-methoxyphenyl)ethyl]-6-cyclopentyl-4-hydroxy-3-[(5-pyridin-4-yl-1,3,4-oxadiazol-2-yl)thio]-5,6-dihydro-2H-pyran-2-one] | 310
23 | COc1ccc(CCC2(C3CCCC3)CC(O)=C(Sc3nc(C)cc(C)c3C#N)C(=O)O2)cc1Cl (stereo not shown) [C(105), 2-({6-[2-(3-chloro-4-methoxyphenyl)ethyl]-6-cyclopentyl-4-hydroxy-2-oxo-5,6-dihydro-2H-pyran-3-yl}thio)-4,6-dimethylnicotinonitrile] | 200
24 | COc1ccc(CCC2(C3CCCC3)CC(O)=C(Sc3nc(-c4ccccc4)cs3)C(=O)O2)cc1Cl (stereo not shown) [C(106), 6-[2-(3-chloro-4-methoxyphenyl)ethyl]-6-cyclopentyl-4-hydroxy-3-[(4-phenyl-1,3-thiazol-2-yl)thio]-5,6-dihydro-2H-pyran-2-one] | 240
25 | COc1ccc(CCC2(C3CCCC3)CC(O)=C(SCc3ccccn3)C(=O)O2)cc1Cl (stereo not shown) [C(107), 6-[2-(3-chloro-4-methoxyphenyl)ethyl]-6-cyclorpentyl-4-hydroxy-3-[(pyridin-2-ylmethyl)thio]-5,6-dihydro-2H-pyran-2-one] | 160
26 | COc1ccc(CCC2(C3CCCC3)CC(O)=C(Sc3cccc(Cl)c3Cl)C(=O)O2)cc1Cl (stereo not shown) [C(108), 6-[2-(3-chloro-4-methoxyphenyl)ethyl]-6-cyclopentyl-3-[(2,3-dichlorophenyl)thio]-4-hydroxy-5,6-dihydro-2H-pyran-2-one] | 210
27 | COc1ccc(CCC2(C3CCCC3)CC(O)=C(SCCc3ccccn3)C(=O)O2)cc1Cl (stereo not shown) [C(109), 6-[2-(3-Chloro-4-methoxy-phenyl)-ethyl]-6-cyclopentyl-4-hydroxy-3-(2-pyridin-2-yl-ethylsulfanyl)-5,6-dihydro-pyran-2-one] | 900
28 | CC(C)(C#N)c1ccc(OCC2(C3CCCC3)CC(=O)CC(=O)O2)cc1F (stereo not shown) [C(110), 2-[4-(2-Cyclopentyl-4,6-dioxo-tetrahydro-pyran-2-ylmethoxy)-2-fluoro-phenyl]-2-methyl-propionitrile] | 7600
29 | Cc1cnc2nc(CC3=C(O)CC(COc4ccc(C(C)(C)C#N)c(F)c4)(C4CCCC4)OC3=O)nn2c1 (stereo not shown) [C(111), 2-{4-[2-Cyclopentyl-4-hydroxy-5-(6-methyl-[1,2,4]triazolo[1,5-a]pyrimidin-2-ylmethyl)-6-oxo-3,6-dihydro-2H-pyran-2-ylmethoxy]-2-fluoro-phenyl}-2-methyl-propionitrile] | 395
30 | Cc1cc(C)n2nc(CC3=C(O)CC(COc4ccc(C(C)(C)C#N)c(F)c4)(C4CCCC4)OC3=O)nc2n1 (stereo not shown) [C(112), 2-{4-[2-Cyclopentyl-5-(5,7-dimethyl-[1,2,4]triazolo[1,5-a]pyrimidin-2-ylmethyl)-4-hydroxy-6-oxo-3,6-dihydro-2H-pyran-2-ylmethoxy]-2-fluoro-phenyl}-2-methyl-propionitrile] | 64
31 | N#CCC(=O)c1ccc(C#CC2(C3CCCC3)CC(=O)CC(=O)O2)cc1 (stereo not shown) [E(1), 3-[4-(2-Cyclopentyl-4,6-dioxo-tetrahydro-pyran-2-ylethynyl)-phenyl]-3-oxo-propionitrile] | 22000
